Usually EC50 stands for the concentration needed to bring the measured effect to its halfway point.

The source made the active and inactive calls. The rule behind the calls is not given here.

Data set [1] in a line: Cytotoxicity against human PLC/PRF/5 cells after 24 hrs by MTT assay in presence of doxorubicin. The format is functional, cell-based. The note with it: PLC-PRF-5, 24 h. On the technique in general: Tetrazolium assays rely on reduction of a dye to a coloured formazan, in cell work by metabolically active cells.
Data set [2] has as its system HepG2. The data set is described as follows: Induction of necrosis in human HepG2 cells assessed as LDH leakage at >50 uM after 24 hrs. Type of data set: functional, cell-based.
For data set [3], the system named is HepG2. The data set is described as follows: Cytotoxicity against human doxorubicin-resistant HepG2 cells expressing p-gp assessed as combination index after 24 hrs by MTT assay in presence of doxorubicin. Type of data set: functional.
Data set [4] addresses ATP-dependent translocase ABCB1 (Homo sapiens, UniProt P08183). The data set is described as follows: Inhibition of p-glycoprotein in human doxorubicin-resistant HepG2 cells assessed as reduction of doxorubicin efflux after 1 hr by flow cytometry. Type of data set: cell-based. The following applies: hepg2, 1 h.
Data set [5] concerns HepG2. The data set is described as follows: Competitive inhibition of p-glycoprotein in doxorubicin-resistant human HepG2 cells assessed as reduction of doxorubicin efflux after 1 hr by primary Lineweaver-Burk plot analysis. The format is cell-based.
Data set [6] concerns HepG2. The data set is described as follows: Induction of ROS generation in human HepG2 cells after 15 to 30 mins using CM-H2DCFDA by flow cytometry. The format is functional, cell-based. For orientation: A flow cytometer gives signals particle by particle.
Data set [7] concerns HepG2. The data set is described as follows: Induction of oxidative stress in human HepG2 cells assessed as decrease of GSH level per gram of protein at 25 uM after 24 hrs using DTNB by enzymatic kinetic method relative to control. The format is functional.
Data set [8] deals with HepG2. The data set is described as follows: Induction of oxidative stress in human HepG2 cells assessed as decrease of GSSG level per gram of protein at 25 uM after 24 hrs using DTNB by enzymatic kinetic method relative to control. The format is functional.
Data set [9] concerns HepG2. The data set is described as follows: Induction of oxidative stress in human doxorubicin-resistant HepG2 cells expressing p-gp assessed as decrease of GSH level per gram of protein at 25 uM after 24 hrs using DTNB by enzymatic kinetic method relative to control. Type of data set: functional.
For data set [10], the system named is HepG2. The data set is described as follows: Induction of oxidative stress in human doxorubicin-resistant HepG2 cells expressing p-gp assessed as increase of GSH/GSSG ratio at 1.56 to 3.12 uM after 24 hrs using DTNB by enzymatic kinetic method. The format is functional, cell-based.
Data set [11] concerns HepG2. The data set is described as follows: Induction of apoptosis in human HepG2 cells assessed as increase in PARP cleavage after 24 hrs by Western blotting. The format is functional, cell-based. Background: Immunoblotting shows a protein as a band on a membrane.
In data set [12] the test system is HepG2. The data set is described as follows: Induction of apoptosis in human doxorubicin-resistant HepG2 cells expressing p-gp assessed as increase in PARP cleavage after 24 hrs by Western blotting. The format is functional, cell-based.
Data set [13] deals with HepG2. The data set is described as follows: Induction of apoptosis in human HepG2 cells assessed as activation of caspase-3/8/9 at 12.5 after 24 hrs by Western blotting in presence of Z-VAD-FMK. Type of data set: functional, cell-based.
The test system of data set [14] is HepG2. The data set is described as follows: Induction of apoptosis in human HepG2 cells assessed as activation of caspase-3/8/9 at 12.5 after 24 hrs by Western blotting in presence of Z-IETD-FMK. The format is functional, cell-based.
Data set [15] relates to HepG2. The data set is described as follows: Induction of apoptosis in human HepG2 cells assessed as activation of caspase-3/8/9 at 12.5 after 24 hrs by Western blotting in presence of Z-LEHD-FMK. Type of data set: functional, cell-based.
Data set [16] has as its target T1, MAP kinase p38 (Homo sapiens) (UniProt O15264+Q15759+Q16539+P53778). The data set is described as follows: Inhibition of p38 MAPK phosphorylation in human HepG2 cells at 1.56 to 25 uM by Western blot analysis. Type of data set: cell-based.
The target of data set [17] is T1, MAP kinase p38 (Homo sapiens). The data set is described as follows: Inhibition of p38 MAPK phosphorylation in human doxorubicin-resistant HepG2 cells expressing p-gp at 1.56 to 25 uM by Western blot analysis. Type of data set: cell-based.
Data set [18] deals with HepG2. The data set is described as follows: Increase of SAPK/JNK phosphorylation in human doxorubicin-resistant HepG2 cells expressing p-gp at 1.56 to 25 uM by Western blot analysis. Type of data set: cell-based.
For data set [19], the system named is HepG2. The data set is described as follows: Effect on nonphosphorylated SAPK/JNK level in human doxorubicin-resistant HepG2 cells expressing p-gp at 25 uM by Western blot analysis. The following applies: hepg2, 25 µM. The format is ADME, cell-based.
The target in data set [20] is Mitogen-activated protein kinase; ERK1/ERK2 (Homo sapiens) (UniProt P27361+P28482). The data set is described as follows: Inhibition of ERK1/2 phosphorylation in human doxorubicin-resistant HepG2 cells expressing p-gp at 1.56 to 25 uM by Western blot analysis in presence of NAC. The format is cell-based.
Sequence of Mitogen-activated protein kinase; ERK1/ERK2 (Homo sapiens) (P27361 whole entry, looked up): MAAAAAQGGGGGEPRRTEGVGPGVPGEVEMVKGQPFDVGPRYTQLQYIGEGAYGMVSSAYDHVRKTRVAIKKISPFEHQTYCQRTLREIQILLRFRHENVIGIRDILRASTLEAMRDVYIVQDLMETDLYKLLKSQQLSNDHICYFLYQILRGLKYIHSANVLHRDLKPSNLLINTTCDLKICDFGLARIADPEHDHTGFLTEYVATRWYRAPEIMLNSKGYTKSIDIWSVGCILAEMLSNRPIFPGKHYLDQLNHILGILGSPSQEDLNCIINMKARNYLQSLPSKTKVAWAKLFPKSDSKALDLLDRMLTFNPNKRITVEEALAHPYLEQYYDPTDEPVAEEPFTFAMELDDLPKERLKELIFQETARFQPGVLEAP
Sequence of Mitogen-activated protein kinase; ERK1/ERK2 (Homo sapiens) (P28482 whole entry, looked up): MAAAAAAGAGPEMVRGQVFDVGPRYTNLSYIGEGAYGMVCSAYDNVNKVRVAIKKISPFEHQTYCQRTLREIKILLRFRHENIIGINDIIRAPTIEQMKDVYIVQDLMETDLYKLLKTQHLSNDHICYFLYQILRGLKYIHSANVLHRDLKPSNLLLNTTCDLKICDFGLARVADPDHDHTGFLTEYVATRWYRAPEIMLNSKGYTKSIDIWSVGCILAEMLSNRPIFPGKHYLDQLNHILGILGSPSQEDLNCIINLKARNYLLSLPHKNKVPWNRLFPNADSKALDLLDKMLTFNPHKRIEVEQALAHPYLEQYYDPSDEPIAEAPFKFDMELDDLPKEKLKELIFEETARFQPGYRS
The subject of data set [21] is HepG2. The data set is described as follows: Increase of SAPK/JNK phosphorylation in human doxorubicin-resistant HepG2 cells expressing p-gp at 1.56 to 25 uM by Western blot analysis in presence of NAC. The format is cell-based.
Data set [22] concerns the target T1, MAP kinase p38 (Homo sapiens). The data set is described as follows: Inhibition of p38 MAPK phosphorylation in human HepG2 cells at 1.56 to 25 uM by Western blot analysis in presence of SB203580. Type of data set: cell-based.
The target is the same in data set [23]. The data set is described as follows: Inhibition of p38 MAPK phosphorylation in human doxorubicin-resistant HepG2 cells expressing p-gp at 1.56 to 25 uM by Western blot analysis in presence of SB203580. Type of data set: cell-based.

Sequence of ATP-dependent translocase ABCB1 (P08183 whole entry): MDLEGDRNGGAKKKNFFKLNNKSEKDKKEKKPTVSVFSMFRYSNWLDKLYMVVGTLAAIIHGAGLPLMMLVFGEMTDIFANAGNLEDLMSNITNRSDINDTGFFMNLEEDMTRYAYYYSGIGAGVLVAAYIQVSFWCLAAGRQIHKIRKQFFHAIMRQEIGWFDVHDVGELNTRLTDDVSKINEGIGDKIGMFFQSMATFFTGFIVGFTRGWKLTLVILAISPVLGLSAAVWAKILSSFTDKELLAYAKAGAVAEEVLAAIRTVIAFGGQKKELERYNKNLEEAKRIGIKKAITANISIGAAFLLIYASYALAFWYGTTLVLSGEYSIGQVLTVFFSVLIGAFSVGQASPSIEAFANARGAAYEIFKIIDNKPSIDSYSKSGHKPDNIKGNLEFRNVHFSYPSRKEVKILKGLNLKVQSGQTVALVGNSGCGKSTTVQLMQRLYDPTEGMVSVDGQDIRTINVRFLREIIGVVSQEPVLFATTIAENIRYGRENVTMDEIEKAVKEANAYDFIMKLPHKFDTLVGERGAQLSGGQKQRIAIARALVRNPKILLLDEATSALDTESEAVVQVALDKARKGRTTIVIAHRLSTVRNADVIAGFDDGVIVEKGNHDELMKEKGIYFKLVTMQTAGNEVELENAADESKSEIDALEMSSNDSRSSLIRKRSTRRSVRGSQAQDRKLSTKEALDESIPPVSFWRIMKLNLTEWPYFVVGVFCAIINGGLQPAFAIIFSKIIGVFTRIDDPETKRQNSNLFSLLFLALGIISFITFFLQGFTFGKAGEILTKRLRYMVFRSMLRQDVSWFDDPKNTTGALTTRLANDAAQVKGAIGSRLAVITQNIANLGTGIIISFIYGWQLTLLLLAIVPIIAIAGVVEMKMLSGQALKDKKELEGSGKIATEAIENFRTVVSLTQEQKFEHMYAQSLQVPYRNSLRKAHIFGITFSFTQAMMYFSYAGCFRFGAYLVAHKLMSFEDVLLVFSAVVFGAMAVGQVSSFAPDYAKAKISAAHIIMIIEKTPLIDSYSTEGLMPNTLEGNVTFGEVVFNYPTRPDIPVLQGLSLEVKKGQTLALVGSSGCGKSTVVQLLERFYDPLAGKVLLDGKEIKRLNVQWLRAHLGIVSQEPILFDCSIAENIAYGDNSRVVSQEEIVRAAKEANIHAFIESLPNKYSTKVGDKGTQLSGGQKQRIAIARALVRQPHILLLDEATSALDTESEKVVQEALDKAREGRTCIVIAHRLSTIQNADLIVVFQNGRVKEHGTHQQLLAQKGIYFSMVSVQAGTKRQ

With `CC(C)C1=Cc2ccc3c(c2C(=O)C1=O)CCCC3(C)C` [MILTIRONE], the EC50 in data set [1] is 17.4 µM. The result in [2], in data set [11], in [12] and in [18] was Active. Also, in data set [3], the CI is 1.56. Further, the “inhibition (INH)” value in [4] is on record as “Active”. Moreover, the inhibition result in [5], in data set [16] and in data set [17] was “Active” throughout. Also, the Activity entry in [6] was “Dose-dependent effect”; in data set [7], 2.4 µmol; in [8], 3.5 µmol; in [9] it was 1.2 µmol; in data set [19], “Non-toxic”. Also, the result in data set [10], in data set [13], in data set [14] and in data set [15] was inactive. In addition, the inhibition entry in [20], in data set [21], in data set [22] and in data set [23] was “inactive” each time.

These data come from ChEMBL document CHEMBL3608289, “Miltirone Is a Dual Inhibitor of P-Glycoprotein and Cell Growth in Doxorubicin-Resistant HepG2 Cells” (J Nat Prod, 2015).
